Measured values: the supplement of paper PMC4862054

Columns and labels:
Conditions in all cases: incubation time: 72 h
MDA-MB-453 [1] = test: normalised viability (% of control), CellTiter-Blue; higher = more viable cells (about 100 = DMSO control)
Method: (§1)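 DSRT, CellTiter-Blue viability, 72 h incubation. Signal is normalised to DMSO and benzethonium chloride controls. Value is the normalised response at dose 3.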

MFM-223 = test: as above
Method: as §1

MDA-MB-468 [2] = test: as above
Method: as §1

BT-549 [3] = test: as above
Method: as §1

HDQ-P1 [4] = test: as above
Method: as §1

CAL-85-1 [5] = test: as above
Method: as §1

DU-4475 = test: as above
Method: as §1

MDA-MB-231 = test: as above
Method: as §1

MDA-MB-436 [6] = test: as above
Method: as §1

HCC1143 = test: as above
Method: as §1

HCC1599 = test: as above
Method: as §1

HCC1937 = test: as above
Method: as §1

CAL-148 [7] = test: as above
Method: as §1

BT-474 = test: as above
Method: as §1

Hs578T = test: as above
Method: as §1

SK-BR-3 [8] = test: as above
Method: as §1

CAL-120 = test: as above
Method: as §1

CAL-51 [9] = test: as above
Method: as §1

MDA-MB-453 [10] = test: normalised viability (% of control), CellTiter-Blue; higher = more viable cells (about 100 = DMSO control); remark: listed apart in the source
Summary of the method: (§2)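 Breast cancer cell lines were treated for 72 h in 384-well format and measured by CellTiter-Blue fluorescence at 560/590 nm. Results were normalised per plate to vehicle (100) and a positive kill control (0). The entry is normalised viability at a single listed concentration of the series.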

MDA-MB-468 [11] = test: as above; remark: listed apart in the source
Summary of the method: as §2

BT-549 [12] = test: as above; remark: listed apart in the source
Summary of the method: as §2

CAL-85-1 [13] = test: as above; remark: listed apart in the source
Summary of the method: as §2

MDA-MB-453 [14] = test: drug sensitivity score (DSS), CellTiter-Glo (DSS (AUC-based score)); higher = stronger drug effect (viability inhibition or cytotoxicity); extreme values may be limits of the assay
Summary of the method: (§3)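 Each compound occupied 5 concentrations in 10-fold steps over its own 10,000-fold range in 384-well plates, into which breast cancer cell lines were seeded as 20 µl suspension. Following 72 h of incubation, CellTox Green fluorescence (485/520 nm) was measured, and CellTiter-Glo luminescence was measured after 10 min at room temperature. Plates were individually normalised to 0.1 % DMSO and a positive kill control. From the area under the fitted dose-response curve, a drug sensitivity score was calculated.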

HDQ-P1 [15] = test: as above
Summary of the method: as §3

MCF-10A = test: as above
Summary of the method: as §3

MDA-MB-436 [16] = test: as above
Summary of the method: as §3

CAL-148 [17] = test: as above
Summary of the method: as §3

SK-BR-3 [18] = test: as above
Summary of the method: as §3

CAL-51 [19] = test: as above
Summary of the method: as §3

CN(C)c1nc(N(C)C)nc(N(C)C)n1 [Altretamine]
Conditions | normalised viability [%]
BT-474, 100 nM | 117
BT-549 [3], 100 nM | 84.4
BT-549 [12], 10 nM | 89.3
BT-549 [12], 1000 nM | 78.4
BT-549 [12], 10000 nM | 93.4
CAL-51 [9], 10 nM | 103
CAL-85-1 [5], 10 nM | 102
CAL-85-1 [13], 3 nM | 105
CAL-85-1 [13], 30 nM | 91.5
CAL-85-1 [13], 100 nM | 119
CAL-120, 100 nM | 95.5
CAL-148 [7], 10 nM | 102
DU-4475, 10 nM | 104
HCC1143, 100 nM | 91.7
HCC1599, 100 nM | 109
HCC1937, 100 nM | 91.8
HDQ-P1 [4], 10 nM | 105
Hs578T, 100 nM | 96.1
MDA-MB-231, 100 nM | 96.8
MDA-MB-436 [6], 100 nM | 89.5
MDA-MB-453 [1], 10 nM | 97.5
MDA-MB-453 [10], 3 nM | 119
MDA-MB-453 [10], 30 nM | 99.5
MDA-MB-453 [10], 100 nM | 97.4
MDA-MB-468 [2], 100 nM | 104
MDA-MB-468 [11], 10 nM | 94.5
MDA-MB-468 [11], 1000 nM | 104
MDA-MB-468 [11], 10000 nM | 103
MFM-223, 100 nM | 97.2
SK-BR-3 [8], 100 nM | 92.2

Conditions | drug sensitivity score
CAL-51 [19] | 0
CAL-148 [17] | 0
HDQ-P1 [15] | 0
MCF-10A | 0
MDA-MB-436 [16] | 0
MDA-MB-453 [14] | 0
SK-BR-3 [18] | 0

N#Cc1ccc(COC[C@H]2O[C@@H](n3c(NCc4ccc(Cl)c(Cl)c4)nc4c(N)ncnc43)[C@H](O)[C@@H]2O)cc1
Conditions | normalised viability [%]
BT-474, 100 nM | 123
BT-549 [3], 100 nM | 95.2
BT-549 [12], 10 nM | 87.7
BT-549 [12], 1000 nM | 84
BT-549 [12], 10000 nM | 34.4
CAL-51 [9], 10 nM | 109
CAL-85-1 [5], 10 nM | 110
CAL-85-1 [13], 3 nM | 108
CAL-85-1 [13], 30 nM | 107
CAL-85-1 [13], 100 nM | 110
CAL-120, 100 nM | 106
CAL-148 [7], 10 nM | 103
DU-4475, 10 nM | 111
HCC1143, 100 nM | 94.7
HCC1599, 100 nM | 97.1
HCC1937, 100 nM | 99.4
HDQ-P1 [4], 10 nM | 116
Hs578T, 100 nM | 95.8
MDA-MB-231, 100 nM | 90.1
MDA-MB-436 [6], 100 nM | 104
MDA-MB-453 [1], 10 nM | 105
MDA-MB-453 [10], 3 nM | 124
MDA-MB-453 [10], 30 nM | 95.7
MDA-MB-453 [10], 100 nM | 91.4
MDA-MB-468 [2], 100 nM | 94.5
MDA-MB-468 [11], 10 nM | 108
MDA-MB-468 [11], 1000 nM | 89.7
MDA-MB-468 [11], 10000 nM | 68.7
MFM-223, 100 nM | 93.9
SK-BR-3 [8], 100 nM | 89.7

Conditions | drug sensitivity score
CAL-51 [19] | 0
CAL-148 [17] | 0
HDQ-P1 [15] | 1.31
MCF-10A | 1.78
MDA-MB-436 [16] | 0
MDA-MB-453 [14] | 0
SK-BR-3 [18] | 2.28

Cc1[nH]c2ccccc2c1CCNCc1ccc(/C=C/C(=O)NO)cc1 [Panobinostat]
Conditions | normalised viability [%]
BT-474, 10 nM | 97.4
BT-549 [3], 10 nM | 106
BT-549 [12], 1 nM | 97.7
BT-549 [12], 100 nM | 68.7
BT-549 [12], 1000 nM | 14.7
CAL-51 [9], 1 nM | 116
CAL-85-1 [5], 1 nM | 99.3
CAL-85-1 [13], 0.3 nM | 98
CAL-85-1 [13], 3 nM | 88.3
CAL-85-1 [13], 10 nM | 81.4
CAL-120, 10 nM | 59.3
CAL-148 [7], 1 nM | 102
DU-4475, 1 nM | 115
HCC1143, 10 nM | 86.7
HCC1599, 10 nM | 84.7
HCC1937, 10 nM | 69.7
HDQ-P1 [4], 1 nM | 102
Hs578T, 10 nM | 86.8
MDA-MB-231, 10 nM | 94.6
MDA-MB-436 [6], 10 nM | 96.4
MDA-MB-453 [1], 1 nM | 110
MDA-MB-453 [10], 0.3 nM | 121
MDA-MB-453 [10], 3 nM | 64.3
MDA-MB-453 [10], 10 nM | 22.7
MDA-MB-468 [2], 10 nM | 76.8
MDA-MB-468 [11], 1 nM | 108
MDA-MB-468 [11], 100 nM | 52.2
MDA-MB-468 [11], 1000 nM | 16.7
MFM-223, 10 nM | 101
SK-BR-3 [8], 10 nM | 52.3

Conditions | drug sensitivity score
CAL-51 [19] | 17.2
CAL-148 [17] | 20
HDQ-P1 [15] | 8.41
MCF-10A | 11.1
MDA-MB-436 [16] | 10.2
MDA-MB-453 [14] | 23.5
SK-BR-3 [18] | 22.3
